# Measured values as given in patent publication US9006174B2 (priority 2009, dated 2015).
# Ends that are not written are not given here.
# Tested on: cRBCs
# Experiment: Haemolytic activity, chicken erythrocytes
# Format: cell-based
# Settings: 1 h at 37° C.
row,Substance,Toxicity Haemolysis (cRBCs)
1,"RFGRFLRKIRRFRPKVTITIQGSARF-NH2 [CMAP26-NH2, reference compound]",+/− (>25% dead cells)
2,"RFGRFLRKIRRFRPK [CMAP(1-15), RFGRFLRKIRRFRPK]",− (<25% dead cells)
3,RFGRFLRKIRRFRPKVTITIQ [CMAP1-21],− (<25% dead cells)

# Tested on: hRBCs
# Experiment: not given
# Settings: human erythrocytes, 1 h at 37° C.
row,Substance,Toxicity Haemolysis (hRBCs)
1,"RFGRFLRKIR [CMAP(l-l0), RFGRFLRKIR]",−− (<5% dead cells)
2,"RFGRFLRKIRR [CMAP(l-ll), RFGRFLRKIRR]",+/− (>25% dead cells)
3,"RLGRFLRKIRRFRPK [CMAP(1-15) (F2→L), RLGRFLRKIRRFRPK]",− (<25% dead cells)
4,"RFGRFLRKIRRF [CMAP(1-12), RFGRFLRKIRRF]",−− (<5% dead cells)
5,"RFGRLLRKIRRFRPK [CMAP(1-15) (F5→L), RFGRLLRKIRRFRPK]",− (<25% dead cells)
6,RFGRFLRKIRRFRPKVTITIQGSARF [CMAP26],++ (>75% dead cells)
7,"RFLRKIRRFRPK [CMAP(4-15), RFLRKIRRFRPK]",+/− (>25% dead cells)
8,"GRFLRKIRRFRPK [CMAP(3-15), GRFLRKIRRFRPK]",−− (<5% dead cells)
9,"RLGRLLRKIRRLRPK [CMAP(1-15) (3xF→L), RLGRLLRKIRRLRPK]",− (<25% dead cells)
10,"RFGRFLRKIRRFRPK [CMAP(1-15), RFGRFLRKIRRFRPK]",−− (<5% dead cells)
11,"FGRFLRKIRRFRPK [CMAP(2-15), FGRFLRKIRRFRPK]",−− (<5% dead cells)
12,"RFGRFLRKIRRFR [CMAP(1-13), RFGRFLRKIRRFR]",−− (<5% dead cells)
13,"RFGRFLRKIRRFRPKVTITIQGSARFG [CMAP27, reference compound]",− (<25% dead cells)
14,"RWGRFLRKIRRFRPK [CMAP(1-15) (F2→W), RWGRFLRKIRRFRPK]",−− (<5% dead cells)
15,"FLRKIRRFRPK [CMAP(5-15), FLRKIRRFRPK]",− (<25% dead cells)
16,"RWGRWLRKIRRWRPK [CMAP(1-15) (3xF→W), RWGRWLRKIRRWRPK]",− (<25% dead cells)
17,"RFGRWLRKIRRFRPK [CMAP(1-15) (F5→W), RFGRWLRKIRRFRPK]",−− (<5% dead cells)
